According to patent US12404279B2, “Deubiquitinase inhibitors and methods of use thereof” (Molecure S.A., priority 2021, dated 2025):
pIC50: −log10 of the molar value. Counter-ions that a name gives are not always drawn. Like-named read-outs stand apart in the source and are kept apart here.

Molecular target: full-length USP7 (Homo sapiens (Human), UniProt Q93009)
Assay: Enzymatic assay to determine IC50 of USP7 inhibitors (Ubiquitin-Rhodamine 110 cleavage)
Type: biochemical
Settings: for pIC50: 0.5 nM USP7, 0.5 μM Ubiquitin-Rhodamine 110, 45 min at 37° C.; for inhibition at 1 µM: read-out: percent value of inhibition of USP7 activity
How it was run: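 Enzyme: 0.5 nM full-length USP7 in HEPES pH 7.5 buffer with NaCl, DTT, BSA and Tween20, given 15 min at room temperature with DTT before compounds were added.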

[1] = at 1 μM of the test compound, given where IC50 not determined yet

full-length USP7, sequence (Q93009 whole entry): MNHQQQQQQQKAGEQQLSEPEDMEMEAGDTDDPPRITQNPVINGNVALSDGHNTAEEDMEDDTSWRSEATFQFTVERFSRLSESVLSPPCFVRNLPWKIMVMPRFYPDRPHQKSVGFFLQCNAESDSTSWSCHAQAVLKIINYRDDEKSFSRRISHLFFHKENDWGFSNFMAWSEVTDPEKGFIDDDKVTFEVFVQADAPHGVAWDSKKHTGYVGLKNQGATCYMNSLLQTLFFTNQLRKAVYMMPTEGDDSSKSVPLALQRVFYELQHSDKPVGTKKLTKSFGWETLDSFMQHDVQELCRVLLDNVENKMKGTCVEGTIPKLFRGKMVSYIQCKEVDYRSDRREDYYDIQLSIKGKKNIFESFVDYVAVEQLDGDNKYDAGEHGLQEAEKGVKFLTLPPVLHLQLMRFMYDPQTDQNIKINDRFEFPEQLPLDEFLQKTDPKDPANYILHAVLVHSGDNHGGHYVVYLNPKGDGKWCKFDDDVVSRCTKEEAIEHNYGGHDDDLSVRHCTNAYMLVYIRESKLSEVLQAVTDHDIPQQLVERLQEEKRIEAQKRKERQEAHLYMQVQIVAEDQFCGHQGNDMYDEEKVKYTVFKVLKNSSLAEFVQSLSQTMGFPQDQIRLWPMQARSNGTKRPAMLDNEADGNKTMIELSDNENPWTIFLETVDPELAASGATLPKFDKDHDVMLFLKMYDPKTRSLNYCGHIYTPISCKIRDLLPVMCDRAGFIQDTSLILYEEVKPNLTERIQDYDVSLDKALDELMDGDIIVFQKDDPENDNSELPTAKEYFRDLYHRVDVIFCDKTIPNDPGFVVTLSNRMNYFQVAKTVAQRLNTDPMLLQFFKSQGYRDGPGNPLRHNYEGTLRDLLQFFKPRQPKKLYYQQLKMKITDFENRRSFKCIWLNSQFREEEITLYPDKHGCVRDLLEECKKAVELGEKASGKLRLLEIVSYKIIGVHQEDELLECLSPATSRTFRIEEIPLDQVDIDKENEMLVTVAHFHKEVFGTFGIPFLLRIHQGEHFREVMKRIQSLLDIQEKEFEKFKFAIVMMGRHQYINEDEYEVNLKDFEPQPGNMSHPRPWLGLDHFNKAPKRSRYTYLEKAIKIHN

Row | Structure (SMILES) | pIC50 | also measured
1 | Cc1cc(C(F)(F)F)nc(-c2ccnc3cc(CN4C(=O)C5C(C4=O)C5(C)C)sc23)c1C(=O)N1C[C@@H](N)[C@H](F)C1 (stereo partly drawn) [Example 117, 3-((7-(3-((3R,4R)-3-amino-4-fluoropyrrolidine-1-carbonyl)-4-methyl-6-(trifluoromethyl)pyridin-2-yl)thieno[3,2-b]pyridin-2-yl)methyl)-6,6-dimethyl-3-azabicyclo[3.1.0]hexane-2,4-dione dihydrochloride] | > 6.30 | 
2 | Cc1cc(Cl)cc(-c2ccnc3cc(CN4C(=O)C5C(C4=O)C5(C)C)sc23)c1NC(=O)C1CCNCC1 (stereo not drawn) [Example 118, N-(4-chloro-2-(2-((6,6-dimethyl-2,4-dioxo-3-azabicyclo[3.1.0]hexan-3-yl)methyl)thieno[3,2-b]pyridin-7-yl)-6-methylphenyl)piperidine-4-carboxamide 2,2,2-trifluoroacetate] | > 6.30 | 
3 | Cc1cc(-c2ccnc3cc(CN4C(=O)C5C(C4=O)C5(C)C)sc23)c(O[C@H]2CCCNC2)cn1 (stereo partly drawn) [Example 119, 6,6-dimethyl-3-((7-(2-methyl-5-(((S)-piperidin-3-yl)oxy)pyridin-4-yl)thieno[3,2-b]pyridin-2-yl)methyl)-3-azabicyclo[3.1.0]hexane-2,4-dione 2,2,2-trifluoroacetate] |  | inhibition at 1 µM [1]: < 20%
4 | Cc1nc(Cl)cc(-c2ccnc3cc(CN4C(=O)C5C(C4=O)C5(C)C)sc23)c1NC(=O)[C@@H]1CCNC1 (stereo partly drawn) [Example 120, (3R)—N-(6-chloro-4-(2-((6,6-dimethyl-2,4-dioxo-3-azabicyclo[3.1.0]hexan-3-yl)methyl)thieno[3,2-b]pyridin-7-yl)-2-methylpyridin-3-yl)pyrrolidine-3-carboxamide 2,2,2-trifluoroacetate] | 5.00 to 6.00 | 
5 | Cc1cc(Cl)nc(-c2ccnc3cc(CN4C(=O)C5C(C4=O)C5(C)C)sc23)c1N1CCCNC1=O (stereo not drawn) [Example 121, 3-((7-(6-chloro-4-methyl-3-(2-oxotetrahydropyrimidin-1(2H)-yl)pyridin-2-yl)thieno[3,2-b]pyridin-2-yl)methyl)-6,6-dimethyl-3-azabicyclo[3.1.0]hexane-2,4-dione 2,2,2-trifluoroacetate] | 6.00 to 6.30 | 
6 | Cc1cc(C)c(NC(=O)C2CCNCC2)c(-c2ccnc3cc(CN4C(=O)C5C(C4=O)C5(C)C)sc23)n1 (stereo not drawn) [Example 134, N-(2-(2-((6,6-dimethyl-2,4-dioxo-3-azabicyclo[3.1.0]hexan-3-yl)methyl)thieno[3,2-b]pyridin-7-yl)-4,6-dimethylpyridin-3-yl)piperidine-4-carboxamide 2,2,2-trifluoroacetate] |  | inhibition at 1 µM: < 20%
7 | Cc1cc(Cl)nc(-c2ccnc3cc(CN4C(=O)C5C(C4=O)C5(C)C)sc23)c1C(=O)N1CCNCC1 (stereo not drawn) [Example 135, 3-((7-(6-chloro-4-methyl-3-(piperazine-1-carbonyl)pyridin-2-yl)thieno[3,2-b]pyridin-2-yl)methyl)-6,6-dimethyl-3-azabicyclo[3.1.0]hexane-2,4-dione 2,2,2-trifluoroacetate] |  | inhibition at 1 µM: < 20%
8 | Cc1cc(C(F)(F)F)nc(-c2ccnc3cc(CN4C(=O)C5C(C4=O)C5(C)C)sc23)c1C(=O)N1CC[C@H](C(C)N)C1 (stereo partly drawn) [Example 138, 3-((7-(3-((3S)-3-(1-aminoethyl)pyrrolidine-1-carbonyl)-4-methyl-6-(trifluoromethyl)pyridin-2-yl)thieno[3,2-b]pyridin-2-yl)methyl)-6,6-dimethyl-3-azabicyclo[3.1.0]hexane-2,4-dione trihydrochloride] |  | inhibition at 1 µM [1]: 50 to 70%
9 | CCN1CCN(C(=O)c2c(C)cc(C(F)(F)F)nc2-c2ccnc3cc(CN4C(=O)C5C(C4=O)C5(C)C)sc23)CC1 (stereo not drawn) [Example 143, 3-((7-(3-(4-ethylpiperazine-1-carbonyl)-4-methyl-6-(trifluoromethyl)pyridin-2-yl)thieno[3,2-b]pyridin-2-yl)methyl)-6,6-dimethyl-3-azabicyclo[3.1.0]hexane-2,4-dione trihydrochloride] | > 6.30 | 
10 | CC1(C)C2C(=O)N(Cc3cc4nccc(-c5ncc[nH]5)c4s3)C(=O)C21 (stereo not drawn) [Example 146, 3-((7-(1H-imidazol-2-yl)thieno[3,2-b]pyridin-2-yl)methyl)-6,6-dimethyl-3-azabicyclo[3.1.0]hexane-2,4-dione 2,2,2-trifluoroacetate] |  | inhibition at 1 µM: < 20%
11 | CC1(C)C2C(=O)N(Cc3cc4nccc(-c5nccn5CC5CNCCO5)c4s3)C(=O)C21 (stereo not drawn) [Example 147, 6,6-dimethyl-3-((7-(1-(morpholin-2-ylmethyl)-1H-imidazol-2-yl)thieno[3,2-b]pyridin-2-yl)methyl)-3-azabicyclo[3.1.0]hexane-2,4-dione 2,2,2-trifluoroacetate] |  | inhibition at 1 µM: < 20%
12 | CC1(C)C2C(=O)N(Cc3cc4nccc(-c5nc(C(F)(F)F)cn5C[C@@H]5CNCCO5)c4s3)C(=O)C21 (stereo partly drawn) [Example 149, 6,6-dimethyl-3-((7-(1-(((S)-morpholin-2-yl)methyl)-4-(trifluoromethyl)-1H-imidazol-2-yl)thieno[3,2-b]pyridin-2-yl)methyl)-3-azabicyclo[3.1.0]hexane-2,4-dione 2,2,2-trifluoroacetate] |  | inhibition at 1 µM: < 20%

Further lines, with some results ahead:

Row | pIC50 | Structure (SMILES) | also measured
13 | > 6.30 | Cc1cc(Cl)nc(-c2ccnc3cc(CN4C(=O)C5C(C4=O)C5(C)C)sc23)c1NC1CNC1 (stereo not drawn) [Example 122, 3-((7-(3-(azetidin-3-ylamino)-6-chloro-4-methylpyridin-2-yl)thieno[3,2-b]pyridin-2-yl)methyl)-6,6-dimethyl-3-azabicyclo[3.1.0]hexane-2,4-dione tetrahydrochloride] | 
14 | 6.00 to 6.30 | Cc1cc(Cl)nc(-c2ccnc3cc(CN4C(=O)C5C(C4=O)C5(C)C)sc23)c1NC1CC(F)(F)C1 (stereo not drawn) [Example 123, 3-((7-(6-chloro-3-((3,3-difluorocyclobutyl)amino)-4-methylpyridin-2-yl)thieno[3,2-b]pyridin-2-yl)methyl)-6,6-dimethyl-3-azabicyclo[3.1.0]hexane-2,4-dione 2,2,2-trifluoroacetate] | 
15 | > 6.30 | Cc1cc(Cl)nc(-c2ccnc3cc(CN4C(=O)C5C(C4=O)C5(C)C)sc23)c1NC1CCNC1 (stereo not drawn) [Example 126, 3-((7-(6-chloro-4-methyl-3-(pyrrolidin-3-ylamino)pyridin-2-yl)thieno[3,2-b]pyridin-2-yl)methyl)-6,6-dimethyl-3-azabicyclo[3.1.0]hexane-2,4-dione tetrahydrochloride] | 
16 | > 6.30 | Cc1cc(Cl)nc(-c2ccnc3cc(CN4C(=O)C5C(C4=O)C5(C)C)sc23)c1NC1CCNCC1 (stereo not drawn) [Example 127, 3-((7-(6-chloro-4-methyl-3-(piperidin-4-ylamino)pyridin-2-yl)thieno[3,2-b]pyridin-2-yl)methyl)-6,6-dimethyl-3-azabicyclo[3.1.0]hexane-2,4-dione tetrahydrochloride] | 
17 | > 6.30 | Cc1cc(C(F)(F)F)nc(-c2ccnc3cc(CN4C(=O)C5C(C4=O)C5(C)C)sc23)c1NC1CCNCC1 (stereo not drawn) [Example 128, 6,6-dimethyl-3-((7-(4-methyl-3-(piperidin-4-ylamino)-6-(trifluoromethyl)pyridin-2-yl)thieno[3,2-b]pyridin-2-yl)methyl)-3-azabicyclo[3.1.0]hexane-2,4-dione tetrahydrochloride] | 
18 | > 6.30 | Cc1cc(Cl)nc(-c2ccnc3cc(CN4C(=O)C5C(C4=O)C5(C)C)sc23)c1NC1CC2(CNC2)C1 (stereo not drawn) [Example 131, 3-((7-(3-((2-azaspiro[3.3]heptan-6-yl)amino)-6-chloro-4-methylpyridin-2-yl)thieno[3,2-b]pyridin-2-yl)methyl)-6,6-dimethyl-3-azabicyclo[3.1.0]hexane-2,4-dione hydrobromide] | 
19 | > 6.30 | Cc1cc(C(F)(F)F)nc(-c2ccnc3cc(CN4C(=O)C5C(C4=O)C5(C)C)sc23)c1NC1CC2(CNC2)C1 (stereo not drawn) [Example 132, 3-((7-(3-((2-azaspiro[3.3]heptan-6-yl)amino)-4-methyl-6-(trifluoromethyl)pyridin-2-yl)thieno[3,2-b]pyridin-2-yl)methyl)-6,6-dimethyl-3-azabicyclo[3.1.0]hexane-2,4-dione 2,2,2-trifluoroacetate] | 
20 | 5.00 to 6.00 | Cc1cc(C)c(NC(=O)C2CNC2)c(-c2ccnc3cc(CN4C(=O)C5C(C4=O)C5(C)C)sc23)n1 (stereo not drawn) [Example 133, N-(2-(2-((6,6-dimethyl-2,4-dioxo-3-azabicyclo[3.1.0]hexan-3-yl)methyl)thieno[3,2-b]pyridin-7-yl)-4,6-dimethylpyridin-3-yl)azetidine-3-carboxamide 2,2,2-trifluoroacetate] | 
21 | > 6.30 | Cc1cc(C(F)(F)F)nc(-c2ccnc3cc(CN4C(=O)C5C(C4=O)C5(C)C)sc23)c1C(=O)N1[C@@H](C)CNC[C@@H]1C (stereo partly drawn) [Example 141, 3-((7-(3-((2S,6S)-2,6-dimethylpiperazine-1-carbonyl)-4-methyl-6-(trifluoromethyl)pyridin-2-yl)thieno[3,2-b]pyridin-2-yl)methyl)-6,6-dimethyl-3-azabicyclo[3.1.0]hexane-2,4-dione 2,2,2-trifluoroacetate] | 
22 | 5.00 to 6.00 | Cc1cc(C(F)(F)F)nc(-c2ccnc3cc(CN4C(=O)C5C(C4=O)C5(C)C)sc23)c1C(=O)N1[C@H](C)CNC[C@H]1C (stereo partly drawn) [Example 142, 3-((7-(3-((2R,6R)-2,6-dimethylpiperazine-1-carbonyl)-4-methyl-6-(trifluoromethyl)pyridin-2-yl)thieno[3,2-b]pyridin-2-yl)methyl)-6,6-dimethyl-3-azabicyclo[3.1.0]hexane-2,4-dione 2,2,2-trifluoroacetate] | 
23 | 5.00 to 6.00 | CN[C@H]1CCCN(C(=O)c2c(C)cc(C(F)(F)F)nc2-c2ccnc3cc(CN4C(=O)C5C(C4=O)C5(C)C)sc23)C1 (stereo partly drawn) [Example 144, 6,6-dimethyl-3-((7-(4-methyl-3-((S)-3-(methylamino)piperidine-1-carbonyl)-6-(trifluoromethyl)pyridin-2-yl)thieno[3,2-b]pyridin-2-yl)methyl)-3-azabicyclo[3.1.0]hexane-2,4-dione trihydrochloride] | 
24 | 5.00 to 6.00 | Cc1cc(Cl)cc(-c2ccnc3ccoc23)c1O[C@H]1CCCNC1 [Example 150, (S)-7-(5-chloro-3-methyl-2-(piperidin-3-yloxy)phenyl)furo[3,2-b]pyridine 2,2,2-trifluoroacetate] | 
